This note sets out measurements from patent publication US20110282078A1, “CYCLOHEXENE 1,4 -CARBOXYLATES” (Draths Corporation, priority 2009, published 2011).

≈ marks a conversion by molar mass, not a printed value.

A short description of this data set: approximate solubility at room temperature in ethyl acetate. The conditions noted are these: organic solvent or mixture. The data set is classed as physicochemical. How it is done:
A stirred suspension of dried (less than 5 weight percent of water), crude cis,cis or cis,trans muconic acid (200 g) in tetrahydrofuran (THF) (1.8 liter (l)) is heated to 50° C., Within 45 minutes at 50° C. most of the solid dissolves. Activated charcoal (35 g) is added. After 1 hour, the hot suspension is clarified by filtration through a bed of Celite™ diatomaceous earth. The filtrate is evaporated to dryness and the residue is dried under high vacuum to yield pure cis,cis or cis,trans muconic acid (166 g, 83 percent mass recovery). In the case of cis,cis muconic acid, any traces of cis,trans muconic acid can be removed by resuspending the solid twice in refluxing ethyl acetate, which is removed each time by decantation from the cooled solution. The approximate solubilities at room temperature in ethyl acetate are 1 mg/ml for cis,cis muconic acid, 5 mg/ml for cis,trans muconic acid, and 0.1 mg/ml for trans,trans muconic acid.
In the case of `O=C(O)/C=C\C=C\C(=O)O` [cis,trans muconic acid], the solubility (commonly the concentration that dissolves in the medium under given conditions) is around 5000 µg/mL (≈ 35.2 mM). To `O=C(O)/C=C/C=C/C(=O)O` [trans,trans muconic acid] belongs around 100 µg/mL (≈ 0.704 mM); to `O=C(O)/C=C\C=C/C(=O)O` [cis,cis muconic acid], around 1000 µg/mL (≈ 7.04 mM).
